{
  "source": "paper doi:10.1101/2020.03.31.018853v1",
  "about": "(biorxiv, 2020)",
  "biological_target": "T1, GtCPES (Guillardia theta, UniProt L1JFC7, M146A)",
  "T1 sequence (L1JFC7 80-253 M146A)": "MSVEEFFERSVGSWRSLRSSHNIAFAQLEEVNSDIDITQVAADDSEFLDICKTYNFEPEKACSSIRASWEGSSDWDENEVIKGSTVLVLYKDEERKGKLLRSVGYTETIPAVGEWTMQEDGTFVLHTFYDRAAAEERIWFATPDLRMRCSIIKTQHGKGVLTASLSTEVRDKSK",
  "assay": "UV-Vis absorbance titration",
  "assay_type": "binding",
  "data": [
    {"smiles": "C/C=C1/C(=C/c2[nH]c(/C=C3N=C(/C=C4\\NC(=O)C(CC)=C4C)C(C)=C\\3CCC(=O)O)c(CCC(=O)O)c2C)NC(=O)[C@@H]1C", "note": "[3(E)-PCB]", "values": [
      {"measurement": "Kd", "result": "7 ± 0.4", "unit": "µM"}
    ]}
  ]
}
